Patent US20150259331A1, “PROTOZOAN PARASITE GROWTH INHIBITORS” (Northeastern University, priority 2014, published 2015)
Where a name gives a salt, the structure may show the parent alone. Read-outs that look alike come from different tables or passages of the source. Marks after values point to notes of the source that are not given here.

Tests used:
P. falciparum W2 = P. falciparum W2 assay; assay type: cell-based
[1] = tested on: T. brucei brucei Lister 427; test: Trypanosome replication assay; assay type: cell-based, Trypanosoma brucei brucei; conditions: 48 h, 48 h, values ±7%
Procedure: (§1) Then 2 μL of DMSO (control) or different concentrations of drugs prepared from 200× DMSO stocks were added to the cultures. Cells were incubated at 37° C. for 48 h and counted with a hemocytometer. […] All experiments were repeated thrice in independent studies where each dose was administered in duplicate (total n=6). HepG2 Cell Toxicity Assay. The 384 well MTT cytotoxicity assay is a modification of the MTT method described by Ferrari et al. optimized for 384-well throughput, with modifications described below.

HepG2 cells = test: HepG2 cell toxicity (MTT) assay; assay type: cell-based
Procedure: as §1, with “cultures.” for “cultures. Cells were incubated at 37° C. for 48 h and counted with a hemocytometer.”
HepG2 Cell Toxicity assay. The 384 well MTT cytotoxicity assay is a modification of the MTT method described by Ferrari et al.^1 ENREF—26_ENREF—26_ENREF—26 optimized for 384 well throughput. […] 4.25 μL of diluted test compound was then added to the 38.3 μL of media in each well providing a 10 fold final dilution of compound. […] After a 48 hour incubation period, 8 μL of a 1.5 mg/ml solution of MTT diluted in complete MEM media was added to each well. All plates were subsequently incubated in the dark for 1 hour at room temperature. After incubation, the media and drugs in each well was removed by shaking plate over sink, the plates are then left to dry in hood for 15 minutes. […] Plates are put on a 3-D rotator for 15-30 minutes. Absorbance was determined in all wells using a Tecan iControl 1.6 Infinite plate reader.

L. major promastigote = L. major promastigote assay; assay type: cell-based
P. falciparum D6 = P. falciparum D6 assay; assay type: cell-based; conditions: strain D6
P. falciparum C235 = P. falciparum C235 assay; assay type: cell-based; conditions: read-out: P. falciparum C235 (EC50)
T. cruzi = T. cruzi growth inhibition; assay type: cell-based, Trypanosoma cruzi; conditions: for inhibition at 10 µM: read-out: T. cruzi % inh at 10 μM
L. major amastigote = L. major amastigote assay; assay type: cell-based
[2] = Plasmodium falciparum, strain W2, read-out: P. falciparum W2 (EC50)
[3] = Trypanosoma brucei, concentration giving 50% inhibition of growth of T brucei brucei Lister 427 cells, read-out: Tbb EC50
[4] = Homo sapiens, HepG2, 48 h, MTT, 48 hour incubation, read-out: HepG2 IC50
[5] = MTT, 48 hour incubation, read-out: HepG2 IC50
[6] = Plasmodium falciparum, strain C235
[7] = Trypanosoma brucei, read-out: Tbb EC50, concentration giving 50% inhibition of growth of T brucei brucei Lister 427 cells
[8] = Homo sapiens, HepG2, 48 h, read-out: HepG2 IC50, MTT, 48 hour incubation
[9] = read-out: HepG2 IC50, MTT, 48 hour incubation
[10] = Plasmodium falciparum, W2, read-out: P. falciparum W2 (EC50)
[11] = strain W2, read-out: P. falciparum W2 (EC50)
[12] = concentration giving 50% inhibition of growth of T brucei brucei Lister 427 cells, read-out: Tbb EC50

| EC50 (P. falciparum W2; [11]) [nM] | EC50 [1, 12] [nM] | EC50 (L. major promastigote) [µM] | EC50 (P. falciparum D6) [nM] | EC50 (P. falciparum C235; strain C235) [nM] | EC50 (L. major amastigote) [µM] | EC50 (T. cruzi) [µM] | Structure (SMILES) | also measured |
| --- | --- | --- | --- | --- | --- | --- | --- | --- |
| – | – | – | – | – | – | – | O=S(=O)(c1ccc(-c2ccc3ncnc(Nc4ccc(OCc5cccc(F)c5)c(Cl)c4)c3c2)cc1)N1CCOCC1 [Compound 10a, N-(3-Chloro-4-((3-fluorobenzyl)oxy)phenyl)-6-(4-(morpholinosulfonyl)phenyl)quinazolin-4-amine] | EC50 (P. falciparum W2; [2]): 690 nM; EC50 [1, 3]: 1390 nM; EC50 ([1]; concentration giving 50% inhibition of growth of T brucei brucei Lister 427 cells, listed as NEU-369, read-out: Tbb EC50): 1300 nM; IC50 (HepG2 cells; [4]): > 15 µM; EC50 (HepG2 cells; Homo sapiens, HepG2, read-out: HepG2 cell growth EC50): > 15 µM; IC50 (HepG2 cells; [5]): > 20 µM; EC50 (L. major promastigote; Leishmania major): 1.3 µM; EC50 (P. falciparum D6; Plasmodium falciparum): 220 nM; EC50 (P. falciparum C235; [6]): 410 nM; inhibition at 10 µM (T. cruzi; Trypanosoma cruzi): -46%; EC50 (L. major amastigote; Leishmania major): 1.6 µM |
| – | – | – | – | – | – | – | O=S(=O)(c1cccc(-c2ccc3ncnc(Nc4ccc(OCc5cccc(F)c5)c(Cl)c4)c3c2)c1)N1CCOCC1 [Compound 10k, N-(3-Chloro-4-((3-fluorobenzyl)oxy)phenyl)-6-(3-(morpholinosulfonyl)phenyl)quinazolin-4-amine] | EC50 (P. falciparum W2; [2]): 400 nM; EC50 [1, 7]: 330 nM; IC50 (HepG2 cells; [8]): > 15 µM; IC50 (HepG2 cells; [9]): > 20 µM; EC50 (L. major promastigote; Leishmania major): > 15 µM; EC50 (P. falciparum D6; Plasmodium falciparum): 280 nM; EC50 (P. falciparum C235; [6]): 290 nM; EC50 (T. cruzi; Trypanosoma cruzi): 1.7 µM; EC50 (L. major amastigote; Leishmania major): > 15 µM |
| – | – | – | – | – | – | – | O=S(=O)(c1ccc(-c2ccc3ncnc(Nc4ccc(OCc5cccc(F)c5)c(Cl)c4)c3c2)cc1)N1CCCCC1 [Compound 10l, N-(3-Chloro-4-((3-fluorobenzyl)oxy)phenyl)-6-(4-(piperidin-1-ylsulfonyl)phenyl)quinazolin-4-amine] | EC50 (P. falciparum W2; [10]): 330 nM; EC50 [1, 7]: 320 nM; IC50 (HepG2 cells; [8]): > 15 µM; IC50 (HepG2 cells; [9]): > 20 µM; EC50 (L. major promastigote; Leishmania major): > 15 µM; EC50 (P. falciparum D6; Plasmodium falciparum): 180 nM; EC50 (P. falciparum C235; Plasmodium falciparum): 240 nM; inhibition at 10 µM (T. cruzi; Trypanosoma cruzi): 1%; EC50 (L. major amastigote; Leishmania major): > 15 µM |
| – | – | – | – | – | – | – | O=S(=O)(c1cccc(-c2ccc3ncnc(Nc4ccc(OCc5cccc(F)c5)c(Cl)c4)c3c2)c1)N1CCCCC1 [Compound 10m, N-(3-Chloro-4-((3-fluorobenzyl)oxy)phenyl)-6-(3-(piperidin-1-ylsulfonyl)phenyl)quinazolin-4-amine] | EC50 (P. falciparum W2; [10]): 590 nM; EC50 [1, 7]: 460 nM; IC50 (HepG2 cells; [8]): > 15 µM; IC50 (HepG2 cells; [9]): > 20 µM; EC50 (L. major promastigote; Leishmania major): > 15 µM; EC50 (P. falciparum D6; Plasmodium falciparum): 330 nM; EC50 (P. falciparum C235; Plasmodium falciparum): 350 nM; EC50 (T. cruzi; Trypanosoma cruzi): > 50 µM; EC50 (L. major amastigote; Leishmania major): > 15 µM |
| – | – | – | – | – | – | – | O=S(=O)(c1ccc(-c2ccc3ncnc(Nc4ccc(OCc5cccc(F)c5F)c(Cl)c4)c3c2)cc1)N1CCOCC1 [Compound 20h, N-(3-Chloro-4-((2,3-difluorobenzyl)oxy)phenyl)-6-(4-(morpholinosulfonyl)phenyl)quinazolin-4-amine Hydrochloride] | EC50 [1, 3]: 820 nM; IC50 (HepG2 cells; [4]): > 15 µM |
| 570 | – | 0.71 | 130 | 220 | > 15 | – | Cl.O=S(=O)(c1ccc(-c2ccc3ncnc(Nc4ccc(OCc5ccccc5F)c(Cl)c4)c3c2)cc1)N1CCOCC1 [Compound 20i, N-(3-Chloro-4-((2-fluorobenzypoxy)phenyl)-6-(4-(morpholinosulfonyl)phenyl)quinazolin-4-amine Hydrochloride] | EC50 ([1]; concentration giving 50% inhibition of growth of T brucei brucei Lister 427 cells, Hydrochloride, read-out: Tbb EC50): 1650 nM; EC50 ([1]; concentration giving 50% inhibition of growth of T brucei brucei Lister 427 cells, listed as NEU-565, Hydrochloride, read-out: Tbb EC50): 1700 nM; IC50 (HepG2 cells; [5]): > 15 µM |
| 19000 | 7500 | > 15 | 19000 | 19000 | > 15 | – | Fc1cccc(COc2ccc(Nc3ncnc4ccc(-c5cccc(-n6cccn6)c5)cc34)cc2Cl)c1 [NEU-709] | T. cruzi % inh at 10 μM (T. cruzi): (10)* % |
| 630 | 370 | > 15 | 380 | 760 | 8.6 | 1.4 | Fc1cccc(COc2ccc(Nc3ncnc4ccc(-c5ccc(N6CCNCC6)cc5)cc34)cc2Cl)c1 [NEU-710] | – |
| 59 | 550 | 1.9 | 44 | 110 | 4.2 | – | CN1CCN(c2cccc(-c3ccc4ncnc(Nc5ccc(OCc6cccc(F)c6)c(Cl)c5)c4c3)c2)CC1 [NEU-714] | T. cruzi % inh at 10 μM (T. cruzi): (72)* % |
| 740 | 840 | 0.98 | 910 | 1100 | > 15 | – | Fc1cccc(Cn2ncc3ccc(Nc4ncnc5ccc(-c6cccc(N7CCOCC7)c6)cc45)cc32)c1 [NEU-734] | T. cruzi % inh at 10 μM (T. cruzi): (62)* % |
| 51 | 610 | 3.4 | 29 | 28 | 2.2 | 3.9 | CN1CCN(S(=O)(=O)c2ccc(-c3ccc4ncnc(Nc5ccc(OCc6ccccc6)c(Cl)c5)c4c3)cc2)CC1 [NEU-764] | – |
| 110 | 630 | 1.5 | 41 | 36 | 1.9 | 9.9 | CN1CCN(S(=O)(=O)c2ccc(-c3ccc4ncnc(Nc5ccc(OCc6ccccc6)cc5)c4c3)cc2)CC1 [NEU-765] | – |
| 210 | 780 | 5.9 | 33 | 58 | > 15 | > 50 | COc1ccc(Nc2ncnc3ccc(-c4ccc(S(=O)(=O)N5CCN(C)CC5)cc4)cc23)cc1Cl [NEU-766] | – |
| 1500 | 1500 | 6.1 | 700 | 730 | > 15 | > 50 | CN1CCN(S(=O)(=O)c2ccc(-c3ccc4ncnc(Nc5ccccc5)c4c3)cc2)CC1 [NEU-767] | – |
| 780 | 2000 | 12 | 360 | 380 | > 15 | > 50 | CN1CCN(S(=O)(=O)c2ccc(-c3ccc4ncnc(Nc5ccc(F)cc5)c4c3)cc2)CC1 [NEU-768] | – |
| 390 | 2400 | 4.6 | 110 | 170 | > 15 | 21 | CN1CCN(S(=O)(=O)c2ccc(-c3ccc4ncnc(Nc5ccc(Cl)cc5)c4c3)cc2)CC1 [NEU-769] | – |
| 84 | 3300 | > 15 | 38 | 33 | 1.2 | 1.4 | CN1CCN(S(=O)(=O)c2cccc(-c3ccc4ncnc(Nc5ccc(OCc6cccc(F)c6)c(Cl)c5)c4c3)c2)CC1 [NEU-770] | – |
| 90 | 1200 | > 15 | 39 | 40 | > 15 | 1.5 | CN1CCN(S(=O)(=O)c2ccc(-c3ccc4ncnc(Nc5ccc6cnn(Cc7cccc(F)c7)c6c5)c4c3)cc2)CC1 [NEU-771] | – |

| Structure (SMILES) | EC50 (P. falciparum W2; [11]) [nM] | EC50 [1, 12] [nM] | EC50 (L. major promastigote) [µM] | EC50 (P. falciparum D6) [nM] | EC50 (P. falciparum C235; strain C235) [nM] | EC50 (L. major amastigote) [µM] | EC50 (T. cruzi) [µM] | also measured |
| --- | --- | --- | --- | --- | --- | --- | --- | --- |
| O=S(=O)(c1ccc(-c2ccc3ncnc(Nc4ccc(OCc5cccc(F)c5)c(Cl)c4)c3c2)cc1)N1CCCC1 [Compound 10n] | 800 | 350 | > 15 | 200 | 420 | > 15 | – | IC50 (HepG2 cells; [5]): > 15 µM; T. cruzi % inh at 10 μM (T. cruzi): (10)* % |
| O=S(=O)(c1cccc(-c2ccc3ncnc(Nc4ccc(OCc5cccc(F)c5)c(Cl)c4)c3c2)c1)N1CCCC1 [Compound 10o] | 480 | 250 | > 15 | 190 | 300 | > 15 | – | IC50 (HepG2 cells; [5]): > 15 µM; T. cruzi % inh at 10 μM (T. cruzi): (32)* % |
| Fc1cccc(COc2ccc(Nc3ncnc4ccc(-c5cccc(N6CCSCC6)c5)cc34)cc2Cl)c1 [NEU-713] | 1300 | 770 | > 15 | 440 | 780 | 10 | – | T. cruzi % inh at 10 μM (T. cruzi): (55)* % |
